Our source for the DC50 values is patent US12643903B2, “Bifunctional compounds for degradation of EGFR and related methods of use” (BeiGene, Ltd., priority 2020, dated 2026).

For orientation: DC50 means the concentration giving 50% degradation. A high value points to degradation only at high concentration.

What all share (type): cell-based
Common to all, as to details: 16 h treatment, EGFR degradation by HTRF

Assay [1] has as its target T1, EGFR (Homo sapiens, UniProt P00533, DEL746-750).
T1 construct: endogenous in cells; host or cells: HCC827
Briefly: Cell Degradation 2: EGFR degradation in HCC827 cells, HTRF assay. The essentials:
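Compound-treated HCC827 cells were lysed after 16 h and EGFR measured by HTRF (337 nm excitation, 665/620 nm emission) after overnight antibody incubation at room temperature. DC50 came from a four-parameter fit of percent inhibition against compound concentration.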

The next assay deals with T2, EGFR LTC (Homo sapiens, UniProt P00533, C797S/L858R/T790M).
T2 construct: expressed in transfected cells; host or cells: BaF3
T2 sequence (P00533 25-1210 T790M/C797S/L858R): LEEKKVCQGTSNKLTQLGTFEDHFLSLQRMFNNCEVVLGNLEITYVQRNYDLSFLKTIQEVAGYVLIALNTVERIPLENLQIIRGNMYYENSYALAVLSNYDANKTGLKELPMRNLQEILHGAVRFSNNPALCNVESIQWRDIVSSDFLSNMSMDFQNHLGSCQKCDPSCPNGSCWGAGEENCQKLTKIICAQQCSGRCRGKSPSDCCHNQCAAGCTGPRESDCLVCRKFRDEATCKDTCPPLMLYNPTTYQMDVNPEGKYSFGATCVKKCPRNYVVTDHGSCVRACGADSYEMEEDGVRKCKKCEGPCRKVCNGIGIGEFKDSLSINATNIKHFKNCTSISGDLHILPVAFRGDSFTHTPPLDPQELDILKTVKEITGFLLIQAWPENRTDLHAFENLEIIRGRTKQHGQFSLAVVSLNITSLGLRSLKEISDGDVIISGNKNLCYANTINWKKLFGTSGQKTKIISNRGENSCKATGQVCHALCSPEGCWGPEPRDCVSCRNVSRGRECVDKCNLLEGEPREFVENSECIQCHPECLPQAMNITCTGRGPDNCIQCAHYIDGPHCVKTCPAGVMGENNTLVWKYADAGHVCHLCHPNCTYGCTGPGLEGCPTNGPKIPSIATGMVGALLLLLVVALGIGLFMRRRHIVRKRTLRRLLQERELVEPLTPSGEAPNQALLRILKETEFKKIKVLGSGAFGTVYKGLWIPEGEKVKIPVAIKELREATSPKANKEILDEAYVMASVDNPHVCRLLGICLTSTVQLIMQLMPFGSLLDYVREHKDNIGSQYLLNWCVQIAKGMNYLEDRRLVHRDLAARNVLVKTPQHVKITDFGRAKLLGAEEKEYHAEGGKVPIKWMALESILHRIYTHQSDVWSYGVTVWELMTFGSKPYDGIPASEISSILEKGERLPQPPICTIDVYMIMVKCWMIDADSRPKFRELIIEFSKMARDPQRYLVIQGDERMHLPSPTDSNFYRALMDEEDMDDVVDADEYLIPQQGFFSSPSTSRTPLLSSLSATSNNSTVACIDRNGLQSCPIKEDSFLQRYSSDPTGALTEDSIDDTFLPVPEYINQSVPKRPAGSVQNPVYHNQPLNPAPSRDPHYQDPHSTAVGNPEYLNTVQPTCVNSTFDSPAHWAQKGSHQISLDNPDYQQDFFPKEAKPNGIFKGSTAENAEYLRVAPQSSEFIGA
Briefly: Cell Degradation 3: EGFR degradation in BaF3 cells (LTC), HTRF assay. The essentials:
(§1)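 BaF3 cells expressing EGFR (LTC triple mutant C797S/L858R/T790M or DTC) exposed to compounds for 16 h, 8 doses from 4-fold dilution, 0.2% DMSO. Residual EGFR quantified by HTRF in lysates (triple mutant lysate diluted 1:1); DC50 from four-parameter logistic fit.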
A general note: Time-resolved FRET reads energy transfer from a long-lived donor to a nearby acceptor.

For another assay, the system named is EGFR DTC. Kind of assay: Cell Degradation 3: EGFR degradation in BaF3 cells (DTC), HTRF assay. The essentials:
as §1

The target of assay [2] is T3, EGFR (Homo sapiens, UniProt P00533, L858R/T790M).
T3 construct: endogenous in cells; host or cells: H1975
T3 sequence (P00533 25-1210 T790M/L858R): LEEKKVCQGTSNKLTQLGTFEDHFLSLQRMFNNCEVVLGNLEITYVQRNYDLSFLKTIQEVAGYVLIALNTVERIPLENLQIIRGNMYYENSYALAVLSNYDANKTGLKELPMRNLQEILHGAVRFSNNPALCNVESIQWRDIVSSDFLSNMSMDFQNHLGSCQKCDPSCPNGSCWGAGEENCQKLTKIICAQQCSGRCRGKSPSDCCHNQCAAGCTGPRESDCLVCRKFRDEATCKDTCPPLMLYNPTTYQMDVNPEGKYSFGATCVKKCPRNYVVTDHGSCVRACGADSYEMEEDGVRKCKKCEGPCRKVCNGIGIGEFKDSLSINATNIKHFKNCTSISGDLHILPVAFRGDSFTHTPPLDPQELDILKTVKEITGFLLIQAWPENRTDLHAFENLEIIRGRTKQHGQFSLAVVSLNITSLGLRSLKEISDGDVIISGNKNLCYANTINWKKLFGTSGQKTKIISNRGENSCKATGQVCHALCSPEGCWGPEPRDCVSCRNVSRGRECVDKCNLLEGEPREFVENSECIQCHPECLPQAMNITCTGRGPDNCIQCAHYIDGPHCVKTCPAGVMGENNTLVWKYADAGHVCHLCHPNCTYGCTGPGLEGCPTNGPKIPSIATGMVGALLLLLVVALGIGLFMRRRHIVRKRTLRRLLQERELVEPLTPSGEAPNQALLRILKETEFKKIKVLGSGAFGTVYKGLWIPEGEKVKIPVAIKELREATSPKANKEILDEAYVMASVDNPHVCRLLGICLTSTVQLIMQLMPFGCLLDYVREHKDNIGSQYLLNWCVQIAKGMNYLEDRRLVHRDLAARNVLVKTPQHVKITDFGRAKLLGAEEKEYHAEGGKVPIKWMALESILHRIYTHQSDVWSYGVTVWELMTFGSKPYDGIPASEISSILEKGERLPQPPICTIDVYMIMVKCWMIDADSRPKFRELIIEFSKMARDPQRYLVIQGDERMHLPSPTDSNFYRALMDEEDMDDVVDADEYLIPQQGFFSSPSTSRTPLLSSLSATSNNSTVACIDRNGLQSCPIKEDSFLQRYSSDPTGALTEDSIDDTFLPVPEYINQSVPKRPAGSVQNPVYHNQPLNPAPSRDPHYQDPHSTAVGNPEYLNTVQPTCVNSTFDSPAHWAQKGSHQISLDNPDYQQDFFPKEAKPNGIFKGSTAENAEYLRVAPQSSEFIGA
Kind of assay: Cell Degradation 1: EGFR degradation in H1975 cells, HTRF assay. The essentials: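 H1975 cells treated with compound for 16 h, lysed 1 h at room temperature. EGFR measured by HTRF after overnight antibody incubation (665/620 nm). DC50 from four-parameter logistic fit of percent inhibition against concentration.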

T1 sequence (P00533 with tags, fused parts or gaps DEL746-750): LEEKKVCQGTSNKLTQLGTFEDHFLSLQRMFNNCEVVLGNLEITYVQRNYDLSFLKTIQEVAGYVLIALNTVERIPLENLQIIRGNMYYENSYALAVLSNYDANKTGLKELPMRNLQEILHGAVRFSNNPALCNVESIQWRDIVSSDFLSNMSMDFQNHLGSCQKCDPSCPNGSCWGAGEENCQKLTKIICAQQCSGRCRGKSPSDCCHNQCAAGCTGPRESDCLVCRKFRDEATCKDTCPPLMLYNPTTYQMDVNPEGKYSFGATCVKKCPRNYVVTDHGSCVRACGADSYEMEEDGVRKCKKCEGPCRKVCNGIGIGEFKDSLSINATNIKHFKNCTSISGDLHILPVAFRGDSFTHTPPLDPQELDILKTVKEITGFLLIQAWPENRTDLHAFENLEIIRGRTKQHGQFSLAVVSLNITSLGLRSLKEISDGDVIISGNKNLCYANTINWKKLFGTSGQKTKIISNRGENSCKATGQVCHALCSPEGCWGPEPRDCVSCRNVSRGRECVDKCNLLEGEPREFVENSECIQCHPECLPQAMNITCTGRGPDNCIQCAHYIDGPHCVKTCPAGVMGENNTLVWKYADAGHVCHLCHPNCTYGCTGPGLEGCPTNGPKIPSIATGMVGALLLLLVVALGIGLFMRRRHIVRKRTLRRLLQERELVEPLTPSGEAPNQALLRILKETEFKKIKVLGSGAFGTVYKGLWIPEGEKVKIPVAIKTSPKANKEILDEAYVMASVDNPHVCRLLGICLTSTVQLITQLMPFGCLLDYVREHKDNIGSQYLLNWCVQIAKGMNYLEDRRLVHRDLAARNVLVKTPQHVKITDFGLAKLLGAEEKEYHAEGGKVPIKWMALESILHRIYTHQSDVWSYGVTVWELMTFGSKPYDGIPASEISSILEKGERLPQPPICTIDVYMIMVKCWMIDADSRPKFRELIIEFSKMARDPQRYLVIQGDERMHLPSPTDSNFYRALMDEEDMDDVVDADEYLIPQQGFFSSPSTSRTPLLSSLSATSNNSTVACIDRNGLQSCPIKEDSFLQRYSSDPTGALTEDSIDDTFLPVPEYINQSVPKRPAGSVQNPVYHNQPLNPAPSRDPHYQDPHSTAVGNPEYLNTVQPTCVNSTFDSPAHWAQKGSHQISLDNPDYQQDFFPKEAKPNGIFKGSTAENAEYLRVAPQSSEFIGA
T1 sequence (Q96SW2 whole entry partner): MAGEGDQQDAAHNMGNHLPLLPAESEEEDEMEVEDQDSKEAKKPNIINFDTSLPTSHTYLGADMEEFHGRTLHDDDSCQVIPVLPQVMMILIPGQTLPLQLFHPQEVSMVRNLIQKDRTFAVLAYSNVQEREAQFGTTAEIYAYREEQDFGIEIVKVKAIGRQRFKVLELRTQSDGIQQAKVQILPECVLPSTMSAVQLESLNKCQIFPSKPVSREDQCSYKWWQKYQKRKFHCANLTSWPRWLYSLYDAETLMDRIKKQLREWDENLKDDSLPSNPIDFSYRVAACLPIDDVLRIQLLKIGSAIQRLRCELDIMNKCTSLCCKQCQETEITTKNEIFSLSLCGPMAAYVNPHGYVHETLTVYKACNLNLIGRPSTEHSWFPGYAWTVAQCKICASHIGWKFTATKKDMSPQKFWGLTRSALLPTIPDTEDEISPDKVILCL

With `COc1cc(N2CCN(C3CCN(CCc4ccc(C5CCC(=O)NC5=O)cc4)CC3)CC2)ccc1Nc1ncc(Cl)c(Nc2cccc3c2N(S(C)(=O)=O)CC3)n1` (centres unmarked) [Example 38, 3-(4-(2-(4-(4-(4-((5-chloro-4-((1-(methylsulfonyl)indolin-7-yl)amino)pyrimidin-2-yl)amino)-3-methoxyphenyl)piperazin-1-yl)piperidin-1-yl)ethyl)phenyl)piperidine-2,6-dione], the half-maximal degradation concentration (DC50) on EGFR [1] is 9.7 nM; at EGFR LTC, 230 nM; with EGFR DTC it was 176 nM; on EGFR [2], 9.8 nM.
The matching figures for `CS(=O)(=O)N1CCc2cccc(Nc3nc(Nc4ccc(N5CCC(N6CCN(C(=O)C7CN(c8ccc9c(c8)C(=O)N(C8CCC(=O)NC8=O)C9=O)C7)CC6)CC5)c(F)c4)ncc3Cl)c21` (centres unmarked) [Example 77, 5-(3-(4-(1-(4-((5-chloro-4-((1-(methylsulfonyl)indolin-7-yl)amino)pyrimidin-2-yl)amino)-2-fluorophenyl)piperidin-4-yl)piperazine-1-carbonyl)azetidin-1-yl)-2-(2,6-dioxopiperidin-3-yl)isoindoline-1,3-dione]: 1.7 nM, 2.7 nM, 1.8 nM and 2.3 nM.
`COc1cc(N2CCC(N3CCN(CCc4cc(F)c(C5CCC(=O)NC5=O)c(F)c4)CC3)CC2)c(C)cc1Nc1nc(Nc2cccc3c2N(S(C)(=O)=O)CC3)c2cc[nH]c2n1` (centres unmarked) [Example 163, 3-(2,6-difluoro-4-(2-(4-(1-(5-methoxy-2-methyl-4-((4-((1-(methylsulfonyl)indolin-7-yl)amino)-7H-pyrrolo[2,3-d]pyrimidin-2-yl)amino)phenyl)piperidin-4-yl)piperazin-1-yl)ethyl)phenyl)piperidine-2,6-dione]: the 50% degradation concentration (DC50) amounted to 20 nM on EGFR [1], 40 nM on EGFR LTC, 49 nM with EGFR DTC and 3 nM on EGFR [2].
For the compound `CS(=O)(=O)N1CCc2cccc(Nc3nc(Nc4ccc(N5CCC(N6CCN(C(=O)[C@@H]7CCN(c8ccc9c(c8)C(=O)N(C8CCC(=O)NC8=O)C9=O)C7)CC6)CC5)c(F)c4)ncc3Cl)c21` (stereo partly drawn) [Example 83, 5-((R)-3-(4-(1-(4-((5-chloro-4-((1-(methylsulfonyl)indolin-7-yl)amino)pyrimidin-2-yl)amino)-2-fluorophenyl)piperidin-4-yl)piperazine-1-carbonyl)pyrrolidin-1-yl)-2-(2,6-dioxopiperidin-3-yl)isoindoline-1,3-dione], the DC50 on EGFR [1] turned out to be 3 nM; on EGFR LTC it was 14.6 nM; in the assay on EGFR DTC, 5.9 nM; on EGFR [2], 3.2 nM.
The matching figures for `COc1cc(N2CCN(CCC3CCN(c4ccc(C5CCC(=O)NC5=O)cc4)CC3)CC2)ccc1Nc1ncc(Cl)c(Nc2cccc3c2N(S(C)(=O)=O)CC3)n1` (centres unmarked) [Example 56, 3-(4-(4-(2-(4-(4-((5-chloro-4-((1-(methylsulfonyl)indolin-7-yl)amino)pyrimidin-2-yl)amino)-3-methoxyphenyl)piperazin-1-yl)ethyl)piperidin-1-yl)phenyl)piperidine-2,6-dione]: 5.8 nM, 233 nM, 23.6 nM and 13.5 nM.
Taken in the same sequence, the figures for `COc1cc(N2CCC(N3CCN(CCc4ccc(C5CCC(=O)NC5=O)cc4)CC3)CC2)ccc1Nc1ncc(Cl)c(Nc2cccc3c2N(S(C)(=O)=O)CC3)n1` (centres unmarked) [Example 34, 3-(4-(2-(4-(1-(4-((5-chloro-4-((1-(methylsulfonyl)indolin-7-yl)amino)pyrimidin-2-yl)amino)-3-methoxyphenyl)piperidin-4-yl)piperazin-1-yl)ethyl)phenyl)piperidine-2,6-dione] were 6.7 nM, 276 nM, 38.2 nM and 7 nM.
Taken in the same sequence, the figures for `CS(=O)(=O)N1CCc2cccc(Nc3nc(Nc4ccc(N5CCC(N6CCN(CCC7CCN(c8ccc(C9CCC(=O)NC9=O)cc8)CC7)CC6)CC5)c(F)c4)ncc3Cl)c21` (centres unmarked) [Example 79, 3-(4-(4-(2-(4-(1-(4-((5-chloro-4-((1-(methylsulfonyl)indolin-7-yl)amino)pyrimidin-2-yl)amino)-2-fluorophenyl)piperidin-4-yl)piperazin-1-yl)ethyl)piperidin-1-yl)phenyl)piperidine-2,6-dione] were 5.5 nM, 84.6 nM, 49.6 nM and 6 nM.
`COc1cc(N2CCC(N3CCN(CCc4ccc(C5CCC(=O)NC5=O)cc4)CC3)CC2)c(C)cc1Nc1ncc(Br)c(Nc2cccc3c2N(S(C)(=O)=O)CC3)n1` (centres unmarked) [Example 39, 3-(4-(2-(4-(1-(4-((5-bromo-4-((1-(methylsulfonyl)indolin-7-yl)amino)pyrimidin-2-yl)amino)-5-methoxy-2-methylphenyl)piperidin-4-yl)piperazin-1-yl)ethyl)phenyl)piperidine-2,6-dione]: the DC50 stood at 13.6 nM at EGFR [1], 157 nM at EGFR LTC, 33.7 nM in the assay with EGFR DTC and 12.1 nM on EGFR [2].
Taken in the same sequence, the figures for `COc1cc(N2CCC(N3CCN(C(=O)[C@H]4CCN(c5ccc6c(c5)C(=O)N(C5CCC(=O)NC5=O)C6=O)C4)CC3)CC2)ccc1Nc1ncc(Cl)c(Nc2cccc3c2N(S(C)(=O)=O)CC3)n1` (stereo partly drawn) [Example 87, 5-((S)-3-(4-(1-(4-((5-chloro-4-((1-(methylsulfonyl)indolin-7-yl)amino)pyrimidin-2-yl)amino)-3-methoxyphenyl)piperidin-4-yl)piperazine-1-carbonyl)pyrrolidin-1-yl)-2-(26-dioxopiperidin-3-yl)isoindoline-1,3-dione] were 3.1 nM, 16.5 nM, 2.4 nM and 3.5 nM.
The matching figures for `CS(=O)(=O)N1CCc2cccc(Nc3nc(Nc4ccc(N5CCC(N6CCN(C(=O)[C@@H]7CCN(c8ccc9c(c8)C(=O)N(C8CCC(=O)NC8=O)C9=O)C7)CC6)CC5)c(F)c4)nc4[nH]ccc34)c21` (stereo partly drawn) [Example 62, 2-(2,6-dioxopiperidin-3-yl)-5-((R)-3-(4-(1-(2-fluoro-4-((4-((1-(methylsulfonyl)indolin-7-yl)amino)-7H-pyrrolo[2,3-d]pyrimidin-2-yl)amino)phenyl)piperidin-4-yl)piperazine-1-carbonyl)pyrrolidin-1-yl)isoindoline-1,3-dione]: 22.1 nM, 4.7 nM, 3 nM and 4.4 nM.
Taken in the same sequence, the figures for `CS(=O)(=O)N1CCc2cccc(Nc3nc(Nc4ccc(N5CCC(N6CCN(CCc7ccc(C8CCC(=O)NC8=O)cc7)CC6)CC5)c(F)c4)ncc3Cl)c21` (centres unmarked) [Example 45, 3-(4-(2-(4-(1-(4-((5-chloro-4-((1-(methylsulfonyl)indolin-7-yl)amino)pyrimidin-2-yl)amino)-2-fluorophenyl)piperidin-4-yl)piperazin-1-yl)ethyl)phenyl)piperidine-2,6-dione] were 6.7 nM, 17.3 nM, 9.9 nM and 2.3 nM.
Regarding `CS(=O)(=O)N1CCc2cccc(Nc3nc(Nc4ccc(N5CCC(N6CCN(CCC7CCN(c8cc(F)c(C9CCC(=O)NC9=O)c(F)c8)CC7)CC6)CC5)c(F)c4)nc4[nH]ccc34)c21` (centres unmarked) [Example 67, 3-(2,6-difluoro-4-(4-(2-(4-(1-(2-fluoro-4-((4-((1-(methylsulfonyl)indolin-7-yl)amino)-7H-pyrrolo[2,3-d]pyrimidin-2-yl)amino)phenyl)piperidin-4-yl)piperazin-1-yl)ethyl)piperidin-1-yl)phenyl)piperidine-2,6-dione], the half-maximal degradation concentration (DC50) at EGFR [1] is 3.5 nM; on EGFR LTC, 15.7 nM; in the assay on EGFR DTC, 11.7 nM; at EGFR [2], 13.8 nM.
Taken in the same sequence, the figures for `COc1cc(N2CCC(N3CCN(CC4CN(c5ccc6c(c5)C(=O)N(C5CCC(=O)NC5=O)C6=O)C4)CC3)CC2)ccc1Nc1ncc(Cl)c(Nc2cccc3c2N(S(C)(=O)=O)CC3)n1` (centres unmarked) [Example 86, 5-(3-((4-(1-(4-((5-chloro-4-((1-(methylsulfonyl)indolin-7-yl)amino)pyrimidin-2-yl)amino)-3-methoxyphenyl)piperidin-4-yl)piperazin-1-yl)methyl)azetidin-1-yl)-2-(2,6-dioxopiperidin-3-yl)isoindoline-1,3-dione] were 2.7 nM, 16.2 nM, 13 nM and 1.8 nM.
The matching figures for `CS(=O)(=O)N1CCc2cccc(Nc3nc(Nc4ccc(N5CCC(N6CCN(CCc7cc(F)c(C8CCC(=O)NC8=O)c(F)c7)CC6)CC5)c(F)c4)nc4[nH]ccc34)c21` (centres unmarked) [Example 68, 3-(2,6-difluoro-4-(2-(4-(1-(2-fluoro-4-((4-((1-(methylsulfonyl)indolin-7-yl)amino)-7H-pyrrolo[2,3-d]pyrimidin-2-yl)amino)phenyl)piperidin-4-yl)piperazin-1-yl)ethyl)phenyl)piperidine-2,6-dione]: 17.6 nM, 4.4 nM, 3 nM and 3.7 nM.
